What follows are compounds tested against T1, Kinesin-like protein KIF18A (Homo sapiens, UniProt Q8NI77) (assay: Inhibition of recombinant His-tagged human KIF18A (1 to 467 residues) expressed in baculovirus expression system assessed as inhibition of microtubule-stimulated ATPase activity preincubated for 15 mins followed by ATP addition and further incubated for 15 mins and measured after 40 mins by ADP-Glo reagent based assay).
T1 sequence (Q8NI77 whole entry): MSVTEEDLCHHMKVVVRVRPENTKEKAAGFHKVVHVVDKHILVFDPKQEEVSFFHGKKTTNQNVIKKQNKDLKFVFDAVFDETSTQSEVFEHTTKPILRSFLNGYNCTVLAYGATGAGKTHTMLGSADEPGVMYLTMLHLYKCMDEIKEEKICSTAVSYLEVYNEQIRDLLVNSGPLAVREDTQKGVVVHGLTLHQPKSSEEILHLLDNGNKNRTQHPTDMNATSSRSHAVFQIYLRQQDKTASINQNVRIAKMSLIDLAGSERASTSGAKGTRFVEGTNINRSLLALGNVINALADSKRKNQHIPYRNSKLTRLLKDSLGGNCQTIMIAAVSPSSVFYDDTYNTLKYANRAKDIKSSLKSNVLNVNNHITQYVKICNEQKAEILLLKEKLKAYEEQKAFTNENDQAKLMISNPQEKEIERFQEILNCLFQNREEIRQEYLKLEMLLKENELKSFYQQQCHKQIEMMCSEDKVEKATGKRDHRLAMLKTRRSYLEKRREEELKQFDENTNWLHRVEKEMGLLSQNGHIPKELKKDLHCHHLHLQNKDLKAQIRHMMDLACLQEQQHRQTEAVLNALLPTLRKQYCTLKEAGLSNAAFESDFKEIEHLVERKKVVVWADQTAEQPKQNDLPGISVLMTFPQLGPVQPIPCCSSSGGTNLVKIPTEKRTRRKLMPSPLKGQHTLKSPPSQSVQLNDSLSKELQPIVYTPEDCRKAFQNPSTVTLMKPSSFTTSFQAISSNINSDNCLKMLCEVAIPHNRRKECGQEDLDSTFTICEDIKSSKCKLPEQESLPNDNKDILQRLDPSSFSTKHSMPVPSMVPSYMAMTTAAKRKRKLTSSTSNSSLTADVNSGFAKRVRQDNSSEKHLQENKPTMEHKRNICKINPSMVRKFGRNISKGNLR

| IC50 [nM] | SMILES |
| --- | --- |
| 24 | Cc1cc(NC(=O)c2ccc(NS(=O)(=O)CCO)cc2N2CCC3(CC2)CC3)nc(N2CC(F)(F)C2)c1 |
| 67 | C[C@@H]1CN(c2cccc(NC(=O)c3ccc(NS(=O)(=O)CC(F)F)cc3N3CCC4(CC3)CC4)n2)CCO1 |

| SMILES | IC50 [nM] |
| --- | --- |
| O=C(Nc1cccc(OC(F)F)n1)c1ccc(NS(=O)(=O)CCO)cc1N1CCC2(CC1)CC2 | 45 |

Reference: ChEMBL document CHEMBL5050848, “Kif18a inhibitors” (2020)
